For 40 compounds, LC retention time results are on record in the RepoRT retention time repository (doi:10.1021/acs.analchem.7b00925).

Structures are written as SMILES.

The nature of the series: HILIC, Merck SeQuant ZIC-HILIC, 100 × 2.1 mm, 3.5 µm, 25 °C, 0.3 mL/min, estimated dead time 0.73 min; A: water + 0.1% formic acid, pH 3; B: acetonitrile + 0.1% formic acid, pH 3; gradient (min/%B) 0/95 1.5/95 13.5/40 15.5/40 29.7/25 33.5/25 34.5/95 41.5/95. The following applies: stereoisomer not certain.
Consider `O=C1CC(C(=O)O)NC(=O)N1` (stereo not given) [Dihydroorotic acid], for which the LC retention time was 4.02 min. Consider `CC1=NCCC(C(=O)O)N1` (stereo not given) [Ectoine], for which the LC retention time is 6.85 min. As to `OCC(O)C(O)CO` (stereo not given) [Erythritol], the LC retention time is 5.11 min. Under `O=C(O)c1cc(O)c(O)c(O)c1` [Gallic acid] stands 4.67 min; under `O=C1OC(CO)C(O)C(O)C1O` (stereo not given) [Gluconolactone], 4.49 min. As to `NC1C(O)OC(CO)C(O)C1O` (stereo not given) [Glucosamine], the LC retention time was 10.5 min.

Regarding `OCC1OC(O)C(O)C(O)C1O` (stereo not given) [Glucose], the LC retention time is 6.86 min. Under `NC(=O)CCC(N)C(=O)O` (stereo not given) [Glutamine] stands 8.52 min.

For the compound `NC(N)=NCC(=O)O` [Glycocyamine], the LC retention time was 8.52 min.

As for `NCC(=O)NCC(=O)O` [Glycyl-glycine], the LC retention time was 9.29 min. Under `CC(C)C(NC(=O)CN)C(=O)O` (stereo not given) [Glycyl-valine] stands 7.08 min; under `Nc1nc2c(ncn2C2OC(COP(=O)(O)O)C(O)C2O)c(=O)[nH]1` (stereo not given) [Guanosine mono-phosphate], 8.15 min; under `O=S(=O)(O)CCN1CCN(CCO)CC1` [HEPES], 10.7 min.

Take `OCCOCCOCCOCCOCCOCCO` [Hexaethylene glycol]: the LC retention time was 1.69 min. Under `O=C(O)CNC(=O)c1ccccc1` [Hippuric acid] stands 1.36 min; under `NCCc1cnc[nH]1` [Histamine], 14.4 min. Under `NC(CCS)C(=O)O` (stereo not given) [Homocysteine] stands 7.41 min; under `NC(CCO)C(=O)O` (stereo not given) [Homoserine], 8.29 min; under `C[N+]1(C)CCCCC1C(=O)[O-]` (stereo not given) [Homostachydrine], 6.93 min. Under `NCCc1cc(O)c(O)cc1O` [Hydroxydopamine] stands 9.19 min; under `NCCS(=O)O` [Hypotaurine], 7.87 min.

`O=C(O)c1c[nH]c2ccccc12` [Indole-3-carboxylic acid]: the LC retention time was 1.46 min.

On to `O=C(O)c1ccncc1` [Isonicotinic acid], for which the LC retention time is 2.25 min. Under `Cn1cncc1CC(NC(=O)CCN)C(=O)O` [L-Anserine] stands 12.6 min; under `NC(N)=NCCC[C@H](N)C(=O)O` [L-Arginine], 12.2 min.

`CC[C@H](C)[C@H](N)C(=O)O` [L-Isoleucine]: the LC retention time is 6.76 min.

Regarding `CCNC(=O)CC[C@H](N)C(=O)O` [L-Theanine], the LC retention time is 7.58 min.

For the compound `CS(=O)(=O)CCC(N)C(=O)O` [L-methionine sulfone], the LC retention time was 7.89 min. Under `NCCCCC(N)C(=O)O` (stereo not given) [Lysine] stands 12.5 min; under `O=S(=O)(O)CCN1CCOCC1` [MES], 6.42 min; under `OCC(O)C(O)C(O)C(O)CO` (stereo not given) [Mannitol], 6.57 min. Under `CNCC(O)c1ccc(O)c(OC)c1` (stereo not given) [Metanephrine] stands 7.06 min. Under `CN(C)C(=N)N=C(N)N` [Metformin] stands 8.84 min. On to `CS(=O)CCC(N)C(=O)O` (stereo not given) [Methionine sulfoxide], for which the LC retention time is 8.59 min. Under `COC(=O)c1nccnc1N` [Methyl 3-aminopyrazine-2-carboxylic acid] stands 1.05 min. With `COC(=O)c1cccnc1` [Methyl nicotinic acid], the LC retention time is 1.16 min. As to `Cc1ccccc1C(=O)NCC(=O)O` [Methylhippurate], the LC retention time is 1.05 min.

As to `COC(=O)c1ccccn1` [Methylpicolinate], the LC retention time was 1.06 min. As for `CSCC1OC(n2cnc3c(N)ncnc32)C(O)C1O` (stereo not given) [Methylthioadenosine], the LC retention time is 4.81 min. Under `CC(=O)NCCCC[C@H]([NH3+])C(=O)[O-]` [N6-Acetyl-L-lysine] stands 7.59 min.
